# System: anesthetized rat
# Assay: Blood pressure-lowering effect in anesthetized rat
# Format: in vivo
# Conditions: duodenal administration; for Blood pressure-lowering effect ED30: dose causing a decrease in the blood pressure by 30%; for Blood pressure-lowering effect Half duration: half duration at ED30 (recovery to 50% of the maximum decrease in blood pressure)
# Protocol: Male Sprague Dawley rats weighing 280 to 450 g were anesthetized with sodium pentobarbital (50 mg/kg, i.p.) and fixed in the supine position. A canula was inserted into the trachea of each animal. Then the blood pressure of the animal was measured (AP-621G, Nippon Kohden Corp.) through a polyethylene tube (PE50) inserted into the right femoral artery via a pressure transducer (Life Kit DTS, DX-300, Nippon Kohden Corp.) and the heart rate was determined from the pulse wave (AT-610G, Nippon Kohden Corp.). A canula (PE10) for injecting the maintenance anesthetic drug (sodium pentobarbital 20 mg/kg/h) was inserted into the right femoral vein. The abdominal region was medianly sectioned and a canula (PE50 connected to a injection needle 23G) for duodenal drug administration was inserted thereinto and fixed with Aronalpha for surgical use. After 60-90 minutes of recovery period, the drug was administered into duodenum. After administering the drug, the blood pressure was measured until the average blood pressure returned to the level before the administration.
# As the indication of the blood pressure-lowering effect of each drug, the dose causing a decrease in the blood pressure by 30%, based on the level before the administration, was calculated from the dose-response curve and employed as the 30% effective dose (ED30). Moreover, the time required for the recovery to the level corresponding to 50% of the maximum decrease in the blood pressure (half duration) was measured at each dose. Then the half duration at the above-mentioned ED30 was calculated and employed as the indication of the lasting time of the blood pressure-lowering effect (half duration at ED30).
# As the test compounds, use was made of the compounds of the present invention obtained in the above Examples. Table C summarizes the results. Table C
Compound,Blood pressure-lowering effect ED30 [mg/kg],Blood pressure-lowering effect Half duration [min]
"C[C@H](CSC(=O)c1ccccc1)C(=O)[N-]c1c[n+](N2CCN(Cc3ccccc3)CC2)no1 [Example 18, N-((S)-3-(Benzoylthio)isobutyryl)-3-(4-benzylpiperazin-1-yl)sydnonimine]",2.0,62
"CCN1CCN([n+]2cc([N-]C(=O)CCSC(C)=O)on2)CC1 [Example 122, N-(3-(Acetylthio)propionyl)-3-(4-ethylpiperazin-1-yl)sydnonimine]",0.6,48
"CC(=O)N[C@@H](CSC(C)=O)C(=O)[N-]c1c[n+](N2CCN(C(C)C)CC2)no1 [Example 183, N-((R)-2-Acetylamino-3-(acetylthio)propionyl)-3-(4-isopropylpiperazin-1-yl)sydnonimine]",1.0,47
"CN1CCN([n+]2cc([N-]C(=O)CCSC(=O)Nc3ccccc3)on2)CC1 [Example 171, N-(3-(Phenylcarbamoylthio)propionyl)-3-(4-methylpiperazin-1-yl)sydnonimine]",0.3,45
"CCNC(=O)SCCC(=O)[N-]c1c[n+](N2CCN(CC)CC2)no1 [Example 163, N-(3-(Ethylcarbamoylthio)propionyl)-3-(4-ethylpiperazin-1-yl)sydnonimine]",0.2,44
"CC(=O)SC[C@@H](C)C(=O)[N-]c1c[n+](N2CCN(C(C)C)CC2)no1 [Example 80, N-((S)-3-(Acetylthio)isobutyryl)-3-(4-isopropylpiperazin-1-yl)sydnonimine]",0.6,49
"3-(4-Benzylpiperazin-1-yl)-N-((3,4,5-trimethoxyphenyl)acetyl)sydnonimine [Example 17]",1.4,21
"Cc1cccc(C)c1C(=O)SCC(=O)[N-]c1c[n+](N2CCN(C)CC2)no1 [Example 132, N-((2,6-Dimethylbenzoylthio)acetyl)-3-(4-methylpiperazin-1-yl)sydnonimine]",0.7,44
"CC(C)N1CCN([n+]2cc([N-]C(=O)CCSC(=O)c3ccc(F)cc3)on2)CC1 [Example 137, N-(3-(4-Fluorobenzoylthio)propionyl)-3-(4-isopropylpiperazin-1-yl)sydnonimine]",0.6,46
"CN1CCN([n+]2cc([N-]C(=O)CCSc3cc(C(C)(C)C)c(O)c(C(C)(C)C)c3)on2)CC1 [Example 179, N-(3-(3,5-Di-t-butyl-4-hydroxyphenylthio)propionyl)-3-(4-methylpiperazin-1-yl)sydnonimine]",0.9,43
"CC(=O)N[C@@H](CSC(C)=O)C(=O)[N-]c1c[n+](N2CCN(C)CC2)no1 [Example 181, N-((R)-2-Acetylamino-3-(acetylthio)propionyl)-3-(4-methylpiperazin-1-yl)sydnonimine]",0.8,60
"CCOC(=O)[N-]c1cn(N2CCOCC2)n[o+]1 [molsidomine, reference compound]",0.3,39
"CC(=O)SC[C@@H](C)C(=O)[N-]c1c[n+](N2CCN(C)CC2)no1 [Example 78, N-((S)-3-(Acetylthio)isobutyryl)-3-(4-methylpiperazin-1-yl)sydnonimine]",1.0,40
"CC(=O)SCCC(=O)[N-]c1c[n+](N2CCN(Cc3ccccc3)CC2)no1 [Example 119, N-(3-(Acetylthio)propionyl)-3-(4-benzylpiperazin-1-yl)sydnonimine]",1.2,49
"CC(=O)N[C@@H](CSC(=O)c1ccc(F)cc1)C(=O)[N-]c1c[n+](N2CCN(C)CC2)no1 [Example 185, N-((R)-2-Acetylamino-3-(4-fluorobenzoylthio)propionyl)-3-(4-methylpiperazin-1-yl)sydnonimine]",1.5,53
"CC(C)N1CCN([n+]2cc([N-]C(=O)CCSC(=O)c3ccccc3)on2)CC1 [Example 129, N-(3-(Benzoylthio)propionyl)-3-(4-isopropylpiperazin-1-yl)sydnonimine]",1.3,42
"CCN1CCN([n+]2cc([N-]C(=O)CSC(C)=O)on2)CC1 [Example 85, N-(Acetylthioacetyl)-3-(4-ethylpiperazin-1-yl)sydnonimine]",0.3,44
"CCN1CCN([n+]2cc([N-]C(=O)CCSC(=O)C(C)(C)C)on2)CC1 [Example 155, N-(3-(Pivaloylthio)propionyl)-3-(4-ethylpiperazin-1-yl)sydnonimine]",0.2,46
"C[C@H](CSC(=O)c1ccccc1)C(=O)[N-]c1c[n+](N2CCN(C3CCCC3)CC2)no1 [Example 72, N-((S)-3-(Benzoylthio)isobutyryl)-3-(4-cyclopentylpiperazin-1-yl)sydnonimine]",1.3,47
"Cc1c(C)c2c(c(C)c1O)CCC(C)(C(=O)SCC(=O)[N-]c1c[n+](N3CCN(C)CC3)no1)O2 (stereo not drawn) [Example 191, N-((6-Hydroxy-2,5,7,8-tetramethylchroman-2-carbonylthio)acetyl)-3-(4-methylpiperazin-1-yl)sydnonimine]",1.0,58
"COc1cc(CC(=O)[N-]c2c[n+](N3CCN(C)CC3)no2)cc(OC)c1OC [Example 42, N-((3,4,5-Trimethoxyphenyl)acetyl)-3-(4-methylpiperazin-1-yl)sydnonimine]",4.0,60
"C[C@H](CSC(=O)c1ccccc1)C(=O)[N-]c1c[n+](N2CCN(CC(F)(F)F)CC2)no1 [Example 70, N-((S)-3-(Benzoylthio)isobutyryl)-3-(4-(2,2,2-trifluoroethyl)piperazin-1-yl)sydnonimine]",0.7,41
"Cc1cccc(C)c1C(=O)SCCC(=O)[N-]c1c[n+](N2CCN(C)CC2)no1 [Example 141, N-(3-(2,6-Dimethylbenzoylthio)propionyl)-3-(4-methylpiperazin-1-yl)sydnonimine]",0.5,48
"CN1CCN([n+]2cc([N-]C(=O)CCCSC(=O)c3ccccc3)on2)CC1 [Example 174, N-(4-(Benzoylthio)butyryl)-3-(4-methylpiperazin-1-yl)sydnonimine]",0.5,43
